According to patent US9980936B2, “BH4 antagonists and methods related thereto” (Emory University, priority 2014, dated 2018):
Entries after “also recorded” stand apart in the source; their conditions may differ. Where two headings read alike, the source gives them in different places.

Key:
H460 cells [1] = assay: IP3R/Bcl2 interaction and Ca2+ release; assay type: cell-based; conditions: increasing concentrations, 24 h
Experimental: (§1) To further determine whether Bax is important for BDA-2 induction of apoptosis, the apoptotic effect of BDA-366 was tested on wild type (WT) and Bax knockout (Bax−/−) MEF cells. […] To test whether BDA-2/BH4 binding affects the IP3R/Bcl2 interaction and Ca2+ release, H460 cells were treated with increasing concentrations of BDA-366 for 24 h.

[2] = system: human lung cancer cell lines; assay: sensitivity of lung cancer cell lines versus ABT-737; assay type: cell-based
H460 cells [3] = assay: co-IP of Bcl2 with Bax and Bim; assay type: cell-based
Experimental: To test whether BDA-366-induced Bcl2 conformational change increases interaction between Bcl2 and Bax in cells, co-IP experiments were performed following treatment of H460 cells with BDA-366.

purified recombinant Bax = assay: cell-free Bax activation (IP using 6A7 Bax antibody); assay type: biochemical
Experimental: BDA-366-induced Bcl2 conformational change was also confirmed by immunofluorescence using a Bcl2/BH3-domain specific antibody. […] To test this possibility, a 6A7 Bax antibody that only recognizes the conformationally changed, active, form of Bax was employed. Purified Bcl2 was treated with BDA-366 in lysis buffer for 1 h. The mixture of Bcl2/BDA-2 was then incubated with purified recombinant Bax for another 2 h, followed by IP using 6A7 antibody.
To further test whether the BH3 domain of Bcl2 is important for BDA-366 activation of Bax, purified recombinant WT and the BH3 deletion (ΔBH3) mutant Bcl2 proteins were incubated with purified Bax protein in the absence or presence of BDA-366, followed by IP with 6A7 antibody. […] To test this at the cellular or mitochondrial level, WT, ΔBH3 Bcl2 mutant and empty vector (pCIneo) were transfected into H1299 cells that express undetectable levels of endogenous Bcl2 but high levels of endogenous Bax. Cells or isolated mitochondria from these cells were treated with BDA-2, followed by IP with Bcl2 BH3 or 6A7 antibody, respectively.

[4] = system: PDX obtained from a patient with refractory SCLC; assay: patient-derived xenografts (PDX) of refractory SCLC; assay type: in vivo, Mice; conditions: 20 mg/kg/d i.p., 2 weeks
Experimental: Mice carrying xenografts derived from a patient with refractory SCLC were treated with BDA-366 (20 mg/kg/d) via i.p. for 2 weeks.
To evaluate the anti-tumor activity of BDA-2 against SCLC in vivo, patient-derived xenografts (PDX) were established without intervening in vitro culture, which are expected to better recapitulate the SCLC tumor setting.

[5] = target: T1, Bcl2 mutant D10A/N11A/R12A/E13A (AAAA) (Homo sapiens, UniProt P10415, D10A/E13A/N11A/R12A); assay: competitive fluorescence polarization, compound BH4 mutant; assay type: binding
T1 construct: made in house
Excerpt: (§2) A panel of Bcl2 mutants were generated within the BH4 domain at the specific residues that were identified by the initial docking simulations, including D10A, N11A, R12A, E13A, M16A, K17A, H20A and D31A Bcl2 mutants. A compound Bcl2 mutant D10A/N11A/R12A/E13A (AAAA) was created. Recombinant proteins of these mutants were generated for BDA-2/Bcl2 binding analysis using a competitive fluorescence polarization. […] Second, WT and all Bcl2 mutants were exogenously overexpressed in H1299 cells that express undetectable levels of endogenous Bcl2.

[6] = system: NSCLC cell lines A549 and H1299; SCLC cell lines DMS114 and H128; assay: cell growth (SRB) and apoptosis (Annexin V/PI), lines with lower or undetectable Bcl2; assay type: cell-based; conditions: relatively lower or undetectable levels of endogenous Bcl2
Experimental: (§3) The effect of BDA-2 on cell growth and apoptosis was measured by SRB assay and Annexin V/PI binding, respectively, in both small cell lung cancer (SCLC) and non-small cell lung cancer (NSCLC) cell lines that express various levels of endogenous Bcl2.

[7] = system: H1299 cells overexpressing WT or Bcl2 single site mutants; assay: cell survival of H1299 cells overexpressing exogenous WT or single site Bcl2 mutants; assay type: cell-based
Excerpt: as §2

[8] = system: H460 or DMS53 cells expressing Bcl2 shRNA transfected with WT Bcl2; assay: rescue of Bcl2-silenced cells with exogenous WT Bcl2; assay type: cell-based; conditions: 72 h
Excerpt: Whether expression of exogenous Bcl2 can restore the sensitivity of Bcl2-silenced lung cancer cells to BDA-2 and whether the BDA-2/BH4 binding is important for such effect was examined. WT and BDA-2 binding deficient D10A/N11A/R12A/E13A (AAAA) Bcl2 mutant cDNA in pCIneo or vector-only control were transfected into H460 or DMS53 cells expressing Bcl2 shRNA. It has been reported that if the shRNA is directed to the 3′ UTR or 5′ UTR of the gene, the effect of the shRNA1 can be rescued by ectopically expressing the protein using the wild-type or mutant cDNA. Because Bcl2 shRNA1 targets the 5′UTR of endogenous Bcl2, the silencing effect of shRNA1 on Bcl2 expression could be rescued by transfection of exogenous WT or AAAA Bcl2 mutant. After transfection, cells were treated with BDA-2 or the BH3 mimetic ABT-199 at the indicated concentrations for 72 h. […] The apoptotic effect of BDA-2 on lung cancer cells requires its BH4 binding.

[9] = Experimental: In order to define the appropriate doses for in vivo experimentation, the maximum tolerated dose (MTD) was determined. Nu/Nu nude mice were treated in groups of 6 per dose level with increasing doses of BDA-366 (10-50 mg/kg/d) intraperitoneally (i.p.) for up to 12 days. […] Standard single-dose MTD treatment in normal C57BL/6 mice were measured. […] 10% of single dose MTD can usually be considered as the maximum therapeutic dose (30˜40 mg/kg) for continuous treatment.
[10] = system: wild type (WT) and Bax knockout (Bax−/−) MEF cells; assay: apoptotic effect on WT and Bax knockout MEF cells; assay type: cell-based
Experimental: as §1

human lung cancer cells = assay: screening of cytotoxicity by sulforhodamine B (SRB) assay; assay type: cell-based; conditions: among top 200 docked small molecules
Excerpt: A library containing approximately 300,000 small molecules from the National Cancer Institute (NCI) was used to dock the structural pocket of the BH4 domain. The small molecules were ranked according to their energy scores. The top 200 small molecules were selected for screening of cytotoxicity in human lung cancer cells by sulforhodamine B (SRB) assay.

[11] = system: NSCLC cell lines H157, Calu-1, H358, H460, H1975 and SCLC cell lines DMS53, DMS153, H146, H69; assay: cell growth (SRB) and apoptosis (Annexin V/PI), lines with higher Bcl2; assay type: cell-based; conditions: relatively higher levels of Bcl2
Experimental: as §3

T1 sequence (P10415 whole entry D10A/N11A/R12A/E13A): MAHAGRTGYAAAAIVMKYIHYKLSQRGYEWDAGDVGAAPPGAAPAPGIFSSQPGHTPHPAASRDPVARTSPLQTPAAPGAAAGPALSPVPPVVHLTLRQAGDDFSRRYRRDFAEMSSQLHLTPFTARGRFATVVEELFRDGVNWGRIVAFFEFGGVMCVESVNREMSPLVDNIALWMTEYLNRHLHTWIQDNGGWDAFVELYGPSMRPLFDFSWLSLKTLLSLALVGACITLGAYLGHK

## CCN(CC)CC(O)CNc1ccc(NCC2CO2)c2c1C(=O)c1ccccc1C2=O (centres unmarked) [BDA-366, 1-((3-(diethylamino)-2-hydroxypropyl)amino)-4-((oxiran-2-ylmethyl)amino)anthracene-9,10-dione]
H460 cells [1]
  Bcl2/IP3R binding: reduced Bcl2/IP3R binding
  Ca2+ release: increased Ca2+ release
[2]
  sensitivity of most human lung cancer cell lines relative to ABT-737: more sensitive to BDA2 than ABT-737
H460 cells [3]
  Bcl2/Bax interaction: enhanced Bcl2/Bax interaction
  Bcl2/Bim binding: decreased Bcl2/Bim binding
Purified recombinant Bax; Bcl2 treated 1 h, then Bax 2 h
  Bax binding to 6A7 antibody induced by compound-treated Bcl2: enhanced the ability of Bax to bind to 6A7 antibody
Purified recombinant Bax; WT Bcl2
  Bax activation by WT Bcl2 in the presence of compound: can activate Bax via 6A7 conformational change
Purified recombinant Bax; without Bcl2
  direct activation of Bax: not a direct Bax activator
Purified recombinant Bax; ΔBH3 mutant Bcl2
  Bax activation by ΔBH3 mutant Bcl2 in the presence of compound: not
[4]
  growth of SCLC PDX: effectively suppressed the growth of PDX; also recorded: potently suppressed the growth of the SCLC PDX; also recorded: represses tumor growth in xenografts derived from SCLC patient
[5]
  binding to AAAA Bcl2 mutant protein: remarkably decreased BDA-2 binding
[6]
  sensitivity of cells: less sensitive
[7]
  sensitivity of cells overexpressing WT or single site Bcl2 mutants: enhanced sensitivity
[8]
  sensitivity of cells after expression of exogenous WT Bcl2: restored sensitivity
[9]; 40 mg/kg/d i.p.
  time within which dose was uniformly lethal: ≤ 8 days
[9]; 50 mg/kg/d i.p.
  time within which dose was uniformly lethal: up to 12 days
[9]; 10 to 30 mg/kg/d i.p., up to 12 days
  tolerability: tolerable with no death recorded
[10]
  resistance of Bax deficient MEF cells compared to WT MEF cells: significantly resistant
Human lung cancer cells
  activity against human lung cancer cells: most potent activity
[11]
  sensitivity of cells: more sensitive
